Data reported in patent publication US7750165B2, “Metaxalone polymorphs” (Fresenius Kabi Oncology Limited, priority 2005, dated 2010).
Several values for one entry are separate records, joined by “and”; a condition that tells them apart may be missing. Identical values can stand only once. Like-named read-outs stand apart in the source and are kept apart here.

Experiment: Bioavailability and pharmacokinetic study of crystalline Forms A and B of metaxalone, oral suspension, plasma by HPLC
Assay type: in vivo, female wistar rat
Set-up: AUCin / AUCt / AUCt Mean / AUCin Mean: unit not given here
Experimental: A study was undertaken to compare the bioavailability and pharmacokinetic profile of the two crystalline Forms A and B of metaxalone in female wistar rat under fasting condition. A suspension of metaxalone form A and Form B having a concentration of 15.0 mg/ml was prepared using 0.1% Tween-80 in 0.25% carboxy methyl cellulose (CMC). The formulation was used for dosing as such without any further dilution.
Twelve rats were taken, out of which six rats were administered form A crystals of Metaxalone and other six rats were adminstered form B crystals of Metaxalone, in different injection volumes based on body weight, resulting in dose of 150 mg/kg. A total thirteen (0.6 ml) blood samples were collected from each rat into prelabeled tubes containing EDTA solution, by retro-orbital bleeding under mild ether anesthesia. The blood samples were withdrawn at time points of 0 (prior to dosing), 15, 30 mins, 1, 1.5, 2.0, 4.0, 6.0, 8.0, 10.0, 12.0, 24 and 48 hrs post administration. The samples were centrifuged at 4000 rpm for 10 mins at room temperature. Seperated plasma samples were transferred into prelabeled tubes and stored upright in cyrobox. These cyroboxes were then transfered into a deep freezer maintained at −20° C. for the final storage until the completion of analysis.
HPLC system of Shimadzu LC—2010CHT series equipped with shimadzu UV-VIS detector, analytical column YMC Pack ODS C-18, 5 μm, (150×4.6 mm) and a data acquisition system (LC solution software) were used for the quantitative determination of metaxalone in rat plasma.
The results were plotted using the conventional AUC method to calculate pharmacokinetic ters (Cmax, Tmax and AUC (area under the curve, a measure of total bioavailability). The pharmacokinetic results for the crystalline form A and B are summarized in Table-V

[1] = Form A relative to Form B, per rat number 1-6, oral 150 mg/kg, 150 mg/kg
[2] = Mean of N=6 rats, female wistar rat, oral 150 mg/kg, 150 mg/kg
[3] = female wistar rats, fasting, oral 150 mg/kg, plasma, Mean ± SD, 150 mg/kg
[4] = female wistar rats, fasting, oral 150 mg/kg, plasma, Mean ± SD, listed as Metaxalone- Form A, 150 mg/kg
[5] = female wistar rats, oral 150 mg/kg
[6] = female, Wistar, rat, plasma, po, 150 mg/kg, female wistar rats, fasting, oral 150 mg/kg, Mean ± SD
[7] = individual rats 1-6, female wistar rat, oral 150 mg/kg, 150 mg/kg
[8] = individual rats 1-6, female wistar rat, oral 150 mg/kg, 150 mg/kg, in h
[9] = individual rats 1-6, female wistar rat, oral 150 mg/kg, 150 mg/kg, in µg/mL
[10] = female wistar rats, fasting, oral 150 mg/kg, plasma, Mean ± SD (second Table IV), listed as Metaxalone- Form B, 150 mg/kg
[11] = female wistar rats, fasting, oral 150 mg/kg, plasma, Mean ± SD, listed as Metaxalone- Form B, 150 mg/kg

Question: With `Cc1cc(C)cc(OCC2CNC(=O)O2)c1` (single isomer, unassigned) [Form A, 5-(3′,5′-dimethylphenoxy)methyl-2-oxazolidinone] as the compound, how does the “AUCin A/B %” value [1] read?
Answer: 328.5% and 110.5% and 69.0% and 37.7% and 291.3% and 120.9%

Question: And the “AUCt A/B %” value [1]?
Answer: 196.7% and 84.4% and 73.7% and 40.4% and 255.3% and 88.1%

Question: And the “Cmax A/B %” value [1]?
Answer: 111.2% and 77.4% and 89.4% and 90.9% and 103.7% and 85.0%

Question: What about the “AUCin Mean” value [2] of the same compound?
Answer: 451.461

Question: What about the Clobs [3] of the same compound?
Answer: 6.164 ± 2.122 mL/min/kg

Question: What about the Clobs (female wistar rats, fasting, oral 150 mg/kg, plasma, Mean ± SD, listed as Form-A, 150 mg/kg) of the same compound?
Answer: 6.164 ± 2.122 mL/min/kg

Question: And the Clobs [4]?
Answer: 6.164 ± 2.122 mL/min/kg

Question: What about the Lambda z [4] of the same compound?
Answer: 0.119 ± 0.07 h⁻¹

Question: What about the Vzobs [4] of the same compound?
Answer: 3.46602 ± 0.9788 L/kg

Question: And the “bioavailability, based on the observed Cmax values” [5]?
Answer: bioavailable

Question: What about the AUC(0-t) (female, Wistar, rat, plasma, po, 150 mg/kg, Mean of N=6 rats, female wistar rat, oral 150 mg/kg, read-out: AUCt Mean) of the same compound?
Answer: 325 µg·h/mL

Question: And the Cmax (female, Wistar, rat, plasma, po, 150 mg/kg, Mean of N=6 rats, female wistar rat, oral 150 mg/kg, read-out: Cmax Mean)?
Answer: 37700 ng/mL

Question: What about the Tmax (female, Wistar, rat, plasma, po, 150 mg/kg, Mean of N=6 rats, female wistar rat, oral 150 mg/kg, read-out: Tmax Mean) of the same compound?
Answer: 1.5 h

Question: What about the AUC(0-inf) [6] of the same compound?
Answer: 451 ± 166 µg·h/mL

Question: And the MRT last [6]?
Answer: 5.49 ± 1.8 h

Question: And the half-life [6]?
Answer: 7.25 ± 2.9 h

Question: What about the AUC(0-inf) (female, Wistar, rat, plasma, po, 150 mg/kg, female wistar rats, fasting, oral 150 mg/kg, Mean ± SD (second Table IV)) of the same compound?
Answer: 451 ± 166 µg·h/mL

Question: What about the AUC(0-t) (female, Wistar, rat, plasma, po, 150 mg/kg, female wistar rats, fasting, oral 150 mg/kg, plasma, Mean ± SD (second Table IV), read-out: AUClast) of the same compound?
Answer: 325 ± 110 µg·h/mL

Question: What about the AUC(0-t) (female, Wistar, rat, plasma, po, 150 mg/kg, female wistar rats, fasting, oral 150 mg/kg, plasma, Mean ± SD, read-out: AUClast) of the same compound?
Answer: 325 ± 110 µg·h/mL

Question: And the Cmax (female, Wistar, rat, plasma, po, 150 mg/kg, female wistar rats, fasting, oral 150 mg/kg, plasma, Mean ± SD, read-out: Cmax)?
Answer: 37700 ± 4100 ng/mL

Question: And the Tmax (female, Wistar, rat, plasma, po, 150 mg/kg, female wistar rats, fasting, oral 150 mg/kg, plasma, Mean ± SD, read-out: Tmax)?
Answer: 1.5 ± 0.3 h

Question: And the MRT last (female, Wistar, rat, plasma, po, 150 mg/kg, female wistar rats, oral 150 mg/kg, mean ± SD, unit inferred)?
Answer: 5.49 ± 1.8 h

Question: What about the Cmax (female, Wistar, rat, plasma, po, 150 mg/kg, individual rats 1-6, female wistar rat, oral 150 mg/kg, read-out: Cmax) of the same compound?
Answer: 43100 ng/mL

Question: What about the AUCin [7] of the same compound?
Answer: 646.72 and 398.52 and 380.50 and 267.03 and 667.12 and 348.88

Question: And the AUCt [7]?
Answer: 371.39 and 259.03 and 283.70 and 252.67 and 530.31 and 251.62

Question: And the Tmax [8]?
Answer: 2.00 and 1.00

Question: And the Cmax [9]?
Answer: 33.77 and 38.46 and 39.32 and 39.57 and 31.90

Question: Which results are given for `Cc1cc(C)cc(OCC2CNC(=O)O2)c1` (single isomer, unassigned) [Form B, 5-(3′,5′-dimethylphenoxy)methyl-2-oxazolidinone]?
Answer: AUCt Mean [2]: 333.329; Tmax Mean (Mean of N=6 rats, female wistar rat, oral 150 mg/kg, 150 mg/kg, in h): 2.083; Cmax Mean (Mean of N=6 rats, female wistar rat, oral 150 mg/kg, 150 mg/kg, in µg/mL): 40.735; AUCinf [10]: 389.07 ± 200.6 µg·h/mL; AUClast [10]: 333.32 ± 159.9 µg·h/mL; AUCinf [3]: 389.07±200.6 hrμg/ml; AUClast [3]: 333.32±159.9 hrμg/ml; Clobs [3]: 7.8787 ± 3.578 mL/min/kg; Cmax [3]: 40730 ± 2800 ng/mL; Half Life [3]: 4.49 ± 1.7 h; MRTlast [3]: 5.50 ± 1.8 h; Tmax [3]: 2.08 ± 1.4 h; Clobs [11]: 7.8787 ± 3.578 mL/min/kg; Lambda z [11]: 0.172 ± 0.05 h⁻¹; Vzobs [11]: 2.65418 ± 0.4222 L/kg; bioavailability, based on the observed Cmax values [5]: bioavailable; MRTlast (female wistar rats, oral 150 mg/kg, plasma, mean ± SD, unit not given, 150 mg/kg, in h): 5.50±1.8; AUC (female, Wistar, rat, plasma, po, 150 mg/kg, Mean of N=6 rats, female wistar rat, oral 150 mg/kg, read-out: AUCin Mean): 389 µg·h/mL; Cmax (female, Wistar, rat, plasma, po, 150 mg/kg, female wistar rats, oral 150 mg/kg, plasma, mean ± SD, no unit printed for this value, read-out: mean Cmax): 40700 ± 2800 ng/mL; AUCin [7]: 196.86 and 360.78 and 551.70 and 707.50 and 229.04 and 288.56; AUCt [7]: 188.83 and 306.89 and 384.99 and 626.04 and 207.73 and 285.51; Tmax [8]: 1.00 and 4.00 and 1.50; Cmax [9]: 38.75 and 43.65 and 43.04 and 43.27 and 38.16 and 37.54
